From patent publication US20260138978A1, “POSITIVE ALLOSTERIC MODULATORS OF THE MUSCARINIC ACETYLCHOLINE RECEPTOR M1” (Vanderbilt University, priority 2022, published 2026)

Key:
[1] = molecular target: T1, human mAChRM1 (Homo sapiens, UniProt P11229); assay: mAChR M1 cell-based functional assay (calcium mobilization), positive allosteric modulator activity: increase in the EC20 acetylcholine response; conditions: for Emax: PAM mode; for EC50: increase in the EC20 acetylcholine response, read-out: PAM Activity Human M1 EC50
T1 construct: host or cells: CHO-K1
T1 sequence (P11229 1-460): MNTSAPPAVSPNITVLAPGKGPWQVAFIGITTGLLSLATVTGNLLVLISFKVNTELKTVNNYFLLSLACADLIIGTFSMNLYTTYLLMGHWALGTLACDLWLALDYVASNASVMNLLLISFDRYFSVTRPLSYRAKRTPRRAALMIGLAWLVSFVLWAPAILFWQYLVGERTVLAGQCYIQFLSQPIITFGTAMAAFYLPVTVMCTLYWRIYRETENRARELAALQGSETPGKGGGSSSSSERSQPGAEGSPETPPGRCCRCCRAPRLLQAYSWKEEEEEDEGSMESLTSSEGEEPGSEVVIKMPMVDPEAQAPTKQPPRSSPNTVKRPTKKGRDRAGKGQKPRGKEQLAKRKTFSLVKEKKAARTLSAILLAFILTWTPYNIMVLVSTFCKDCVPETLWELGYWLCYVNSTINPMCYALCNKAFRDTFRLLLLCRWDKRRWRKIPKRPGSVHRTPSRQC
Summary of the method: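 CHO-K1 cells stably expressing human M1, loaded with Fluo-4 AM; calcium flux recorded on FDSS at 1 Hz over 300 s following compound addition. PAM activity is the concentration-dependent increase of an EC20 acetylcholine response; EC50 and Emax from four-parameter logistic fits of 11-point, 1:3 concentration series.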

[2] = molecular target: T1, human mAChRM1; assay: mAChR M1 cell-based functional assay (calcium mobilization), agonist activity upon compound addition, Emax relative to acetylcholine maximum; conditions: for Agonist Activity Human M1 EC50 / EC50: calcium mobilization upon compound addition; for Emax: relative to the maximum for acetylcholine
Summary of the method: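 CHO-K1 cells stably expressing human M1 were loaded with Fluo-4 AM for 50 min at 37 °C. Compound was added 4 s into a 300 s FDSS read at 1 Hz, over 11-point 1:3 dilution curves. Agonism was taken as a concentration-dependent rise in calcium fluorescence ratio, with Emax expressed relative to the acetylcholine maximum from four-parameter logistic fits.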

Row | Structure (SMILES) | Emax [1] [%] | EC50 [1] [µM] | Agonist Activity Human M1 EC50 [2] | EC50 [2] [µM] | Emax [2] [%]
1 | CCC(O)(c1ccc(-c2cc(F)c(CN3Cc4ncccc4C3=O)c(F)c2)c2cn(C)nc12)C(F)(F)F (stereo not shown) [Compound 81, 6-(2,6-difluoro-4-(2-methyl-7-(1,1,1-trifluoro-2-hydroxybutan-2-yl)-2H-indazol-4-yl)benzyl)-6,7-dihydro-5H-pyrrolo[3,4-b]pyridin-5-one] | 71 | 4.47 | inactive |  | 
2 | CC[C@](C)(O)c1ccc(-c2cc(F)c(CN3Cc4ncccc4C3=O)c(F)c2)c2cn(C)nc12 [Compound 103, (S)-6-(2,6-difluoro-4-(7-(2-hydroxybutan-2-yl)-2-methyl-2H-indazol-4-yl)benzyl)-6,7-dihydro-5H-pyrrolo[3,4-b]pyridin-5-one] | 87 | 0.254 |  | 4.23 | 11
3 | Cn1cc2c(-c3cc(F)c(CN4Cc5ncccc5C4=O)c(F)c3)ccc(C3(O)CCCC3)c2n1 [Compound 91, 6-(2,6-difluoro-4-(7-(1-hydroxycyclopentyl)-2-methyl-2H-indazol-4-yl)benzyl)-6,7-dihydro-5H-pyrrolo[3,4-b]pyridin-5-one] | 72 | 0.254 |  | 7.03 | 15
4 | CC(C)(O)c1c(F)cc(-c2cc(F)c(CN3Cc4ncccc4C3=O)c(F)c2)cc1F [Compound 47, 6-((3,3′,5,5′-tetrafluoro-4′-(2-hydroxypropan-2-yl)-[1,1′-biphenyl]-4-yl)methyl)-6,7-dihydro-5H-pyrrolo[3,4-b]pyridin-5-one] | 34 | 1.83 | inactive |  | 
5 | Cn1cc2c(-c3cc(F)c(CN4Cc5ncccc5C4=O)c(F)c3)ccc(C(C)(O)CS(C)(=O)=O)c2n1 (stereo not shown) [Compound 97, 6-(2,6-difluoro-4-(7-(2-hydroxy-1-(methylsulfonyl)propan-2-yl)-2-methyl-2H-indazol-4-yl)benzyl)-6,7-dihydro-5H-pyrrolo[3,4-b]pyridin-5-one] | 87 | 0.872 | inactive |  | 

The next lines start with the values.

Row | Emax [1] [%] | EC50 [1] [µM] | Agonist Activity Human M1 EC50 [2] | EC50 [2] [µM] | Emax [2] [%] | Structure (SMILES)
6 | 65 | ≥ 10 | inactive |  |  | Cc1cc(-c2ccc(C(C)(C)O)cc2)ccc1CN1Cc2cccnc2C1=O [Compound 129, 6-((4′-(2-hydroxypropan-2-yl)-3-methyl-[1,1′-biphenyl]-4-yl)methyl)-5,6-dihydro-7H-pyrrolo[3,4-b]pyridin-7-one]
7 | 80 | 0.531 |  | ≥ 10 | 17 | Cc1cnc2c(c1)C(=O)N(Cc1c(F)cc(-c3ccc(C(C)(C)O)c4nn(C)cc34)cc1F)C2 [Compound 174, 6-(2,6-difluoro-4-(7-(2-hydroxypropan-2-yl)-2-methyl-2H-indazol-4-yl)benzyl)-3-methyl-6,7-dihydro-5H-pyrrolo[3,4-b]pyridin-5-one]
8 | 60 | 5.04 | inactive |  |  | CC(C)(O)c1ccc(-c2cc(F)c(CN3Cc4nccnc4C3=O)c(F)c2)cc1 [Compound 137, 6-((3,5-difluoro-4′-(2-hydroxypropan-2-yl)-[1,1′-biphenyl]-4-yl)methyl)-6,7-dihydro-5H-pyrrolo[3,4-b]pyrazin-5-one]
9 | 58 | ≥ 10 | inactive |  |  | COc1cc(-c2ccc(C(C)(C)O)cc2)cc(F)c1CN1Cc2cccnc2C1=O [Compound 119, 6-((3-fluoro-4′-(2-hydroxypropan-2-yl)-5-methoxy-[1,1′-biphenyl]-4-yl)methyl)-5,6-dihydro-7H-pyrrolo[3,4-b]pyridin-7-one]
10 | 87 | 0.499 |  | ≥ 10 | 14 | Cc1cc(-c2ccc(C(C)(C)O)c3nn(C)cc23)ccc1CN1Cc2cccnc2C1=O [Compound 132, 6-(4-(7-(2-hydroxypropan-2-yl)-2-methyl-2H-indazol-4-yl)-2-methylbenzyl)-5,6-dihydro-7H-pyrrolo[3,4-b]pyridin-7-one]
